Assay results taken from patent publication US6525001B1, “Substituted pyrimidine and pyridine herbicides” (Mid-American Commercialization Corporation, priority 1997, dated 2003).

How the values were obtained:
Experiment in all cases: Test B pre-/postemergence
Format in all cases: in vivo
Parameters in all cases: key: 0 is no effect; 10 is complete control
[1] = tested on: sugar beet (Beta vulgaris)
How it was run: (§1)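 Compounds in a surfactant-containing, non-phytotoxic solvent blend are applied to freshly planted seed (preemergence) and, concurrently, to seedlings of 2 to 18 cm at 1–4 leaves (postemergence). Plants stay in the greenhouse twelve to sixteen days and are then scored visually from 0 (no effect) to 10 (complete control).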

[2] = tested on: wheat (Triticum aestivum)
How it was run: as §1

soybean (Glycine max) = tested on: soybean (Glycine max)
How it was run: as §1

[3] = tested on: pigweed (Amaranthus retroflexus)
How it was run: as §1

[4] = tested on: bedstraw (Galium aparine)
How it was run: as §1

rape (Brassica napus) = tested on: rape (Brassica napus)
How it was run: as §1

[5] = tested on: crabgrass (Digitaria sanguinalis)
How it was run: as §1

corn (Zea mays) = tested on: corn (Zea mays)
How it was run: as §1

[6] = tested on: cocklebur (Xanthium strumarium)
How it was run: as §1

[7] = tested on: velvetleaf (Abutilon theophrasti)
How it was run: as §1

[8] = tested on: purple nutsedge (Cyperus rotundus)
How it was run: as §1

[9] = tested on: giant foxtail (Setaria faberii)
How it was run: as §1

wild oat (Avena fatua) = tested on: wild oat (Avena fatua)
How it was run: as §1

[10] = tested on: momingglory (Ipomoea hederacea)
How it was run: as §1

Cc1cnc(-c2ccc(C(F)(F)F)cc2)nc1Cn1nc(C(F)(F)F)cc1C [Compound 13]
Plant response rating, Sugarbeets ([1]; Rate 62 g/ha, Postemergence): 9
Sugarbeets plant response rating ([1]; Rate 62 g/ha, Preemergence): 9
Plant response rating, Sugarbeets ([1]; Rate 125 g/ha, Postemergence): 10
Sugarbeets plant response rating ([1]; Rate 125 g/ha, Preemergence): 10
Plant response rating, Sugarbeets ([1]; Rate 250 g/ha, Postemergence): 10
Plant response rating, Sugarbeets ([1]; Rate 250 g/ha, Preemergence): 10
Plant response rating, Sugarbeets ([1]; Rate 500 g/ha, Postemergence): 10
Plant response rating, Sugarbeets ([1]; Rate 500 g/ha, Preemergence): 10
Plant response rating, Wheat ([2]; Rate 62 g/ha, Postemergence): 2
Wheat plant response rating ([2]; Rate 62 g/ha, Preemergence): 0
Plant response rating, Wheat ([2]; Rate 125 g/ha, Postemergence): 3
Wheat plant response rating ([2]; Rate 125 g/ha, Preemergence): 0
Plant response rating, Wheat ([2]; Rate 250 g/ha, Postemergence): 3
Plant response rating, Wheat ([2]; Rate 250 g/ha, Preemergence): 0
Plant response rating, Wheat ([2]; Rate 500 g/ha, Postemergence): 4
Plant response rating, Wheat ([2]; Rate 500 g/ha, Preemergence): 1
Plant response rating, Soybean (soybean (Glycine max); Rate 62 g/ha, Postemergence): 4
Soybean plant response rating (soybean (Glycine max); Rate 62 g/ha, Preemergence): 1
Plant response rating, Soybean (soybean (Glycine max); Rate 125 g/ha, Postemergence): 5
Soybean plant response rating (soybean (Glycine max); Rate 125 g/ha, Preemergence): 1
Plant response rating, Soybean (soybean (Glycine max); Rate 250 g/ha, Postemergence): 5
Plant response rating, Soybean (soybean (Glycine max); Rate 250 g/ha, Preemergence): 3
Plant response rating, Soybean (soybean (Glycine max); Rate 500 g/ha, Postemergence): 5
Plant response rating, Soybean (soybean (Glycine max); Rate 500 g/ha, Preemergence): 3
Plant response rating, Redroot pigweed ([3]; Rate 62 g/ha, Postemergence): 9
Redroot pigweed plant response rating ([3]; Rate 62 g/ha, Preemergence): 7
Plant response rating, Redroot pigweed ([3]; Rate 125 g/ha, Postemergence): 9
Redroot pigweed plant response rating ([3]; Rate 125 g/ha, Preemergence): 9
Plant response rating, Redroot pigweed ([3]; Rate 250 g/ha, Postemergence): 10
Plant response rating, Redroot pigweed ([3]; Rate 250 g/ha, Preemergence): 9
Plant response rating, Redroot pigweed ([3]; Rate 500 g/ha, Postemergence): 10
Plant response rating, Redroot pigweed ([3]; Rate 500 g/ha, Preemergence): 9
Plant response rating, Bedstraw ([4]; Rate 62 g/ha, Postemergence): 7
Bedstraw plant response rating ([4]; Rate 62 g/ha, Preemergence): 1
Plant response rating, Bedstraw ([4]; Rate 125 g/ha, Postemergence): 9
Bedstraw plant response rating ([4]; Rate 125 g/ha, Preemergence): 2
Plant response rating, Bedstraw ([4]; Rate 250 g/ha, Postemergence): 10
Plant response rating, Bedstraw ([4]; Rate 250 g/ha, Preemergence): 5
Plant response rating, Bedstraw ([4]; Rate 500 g/ha, Postemergence): 10
Plant response rating, Bedstraw ([4]; Rate 500 g/ha, Preemergence): 6
Plant response rating, Rape (rape (Brassica napus); Rate 62 g/ha, Postemergence): 6
Rape plant response rating (rape (Brassica napus); Rate 62 g/ha, Preemergence): 5
Plant response rating, Rape (rape (Brassica napus); Rate 125 g/ha, Postemergence): 8
Rape plant response rating (rape (Brassica napus); Rate 125 g/ha, Preemergence): 6
Plant response rating, Rape (rape (Brassica napus); Rate 250 g/ha, Postemergence): 9
Plant response rating, Rape (rape (Brassica napus); Rate 250 g/ha, Preemergence): 9
Plant response rating, Rape (rape (Brassica napus); Rate 500 g/ha, Postemergence): 9
Plant response rating, Rape (rape (Brassica napus); Rate 500 g/ha, Preemergence): 9
Plant response rating, Crabgrass ([5]; Rate 62 g/ha, Postemergence): 3
Crabgrass plant response rating ([5]; Rate 62 g/ha, Preemergence): 9
Plant response rating, Crabgrass ([5]; Rate 125 g/ha, Postemergence): 4
Crabgrass plant response rating ([5]; Rate 125 g/ha, Preemergence): 10
Plant response rating, Crabgrass ([5]; Rate 250 g/ha, Postemergence): 7
Plant response rating, Crabgrass ([5]; Rate 250 g/ha, Preemergence): 10
Plant response rating, Crabgrass ([5]; Rate 500 g/ha, Postemergence): 9
Plant response rating, Crabgrass ([5]; Rate 500 g/ha, Preemergence): 10
Plant response rating, Corn (corn (Zea mays); Rate 62 g/ha, Postemergence): 3
Corn plant response rating (corn (Zea mays); Rate 62 g/ha, Preemergence): 1
Plant response rating, Corn (corn (Zea mays); Rate 125 g/ha, Postemergence): 3
Corn plant response rating (corn (Zea mays); Rate 125 g/ha, Preemergence): 1
Plant response rating, Corn (corn (Zea mays); Rate 250 g/ha, Postemergence): 3
Plant response rating, Corn (corn (Zea mays); Rate 250 g/ha, Preemergence): 1
Plant response rating, Corn (corn (Zea mays); Rate 500 g/ha, Postemergence): 4
Plant response rating, Corn (corn (Zea mays); Rate 500 g/ha, Preemergence): 2
Plant response rating, Cocklebur ([6]; Rate 62 g/ha, Postemergence): 6
Cocklebur plant response rating ([6]; Rate 62 g/ha, Preemergence): 0
Plant response rating, Cocklebur ([6]; Rate 125 g/ha, Postemergence): 9
Plant response rating, Cocklebur ([6]; Rate 250 g/ha, Postemergence): 9
Plant response rating, Cocklebur ([6]; Rate 250 g/ha, Preemergence): 5
Plant response rating, Cocklebur ([6]; Rate 500 g/ha, Postemergence): 9
Plant response rating, Cocklebur ([6]; Rate 500 g/ha, Preemergence): 7
Plant response rating, Velvetleaf ([7]; Rate 62 g/ha, Postemergence): 4
Velvetleaf plant response rating ([7]; Rate 62 g/ha, Preemergence): 6
Plant response rating, Velvetleaf ([7]; Rate 125 g/ha, Postemergence): 4
Velvetleaf plant response rating ([7]; Rate 125 g/ha, Preemergence): 7
Plant response rating, Velvetleaf ([7]; Rate 250 g/ha, Postemergence): 8
Plant response rating, Velvetleaf ([7]; Rate 250 g/ha, Preemergence): 10
Plant response rating, Velvetleaf ([7]; Rate 500 g/ha, Postemergence): 8
Plant response rating, Velvetleaf ([7]; Rate 500 g/ha, Preemergence): 10
Plant response rating, Nutsedge ([8]; Rate 62 g/ha, Postemergence): 0
Nutsedge plant response rating ([8]; Rate 62 g/ha, Preemergence): 0
Plant response rating, Nutsedge ([8]; Rate 125 g/ha, Postemergence): 0
Nutsedge plant response rating ([8]; Rate 125 g/ha, Preemergence): 0
Plant response rating, Nutsedge ([8]; Rate 250 g/ha, Postemergence): 0
Plant response rating, Nutsedge ([8]; Rate 250 g/ha, Preemergence): 0
Plant response rating, Nutsedge ([8]; Rate 500 g/ha, Postemergence): 0
Plant response rating, Nutsedge ([8]; Rate 500 g/ha, Preemergence): 0
Plant response rating, Giant foxtail ([9]; Rate 62 g/ha, Postemergence): 2
Giant foxtail plant response rating ([9]; Rate 62 g/ha, Preemergence): 9
Plant response rating, Giant foxtail ([9]; Rate 125 g/ha, Postemergence): 3
Giant foxtail plant response rating ([9]; Rate 125 g/ha, Preemergence): 10
Plant response rating, Giant foxtail ([9]; Rate 250 g/ha, Postemergence): 4
Plant response rating, Giant foxtail ([9]; Rate 250 g/ha, Preemergence): 10
Plant response rating, Giant foxtail ([9]; Rate 500 g/ha, Postemergence): 5
Plant response rating, Giant foxtail ([9]; Rate 500 g/ha, Preemergence): 10
Plant response rating, Wild oats (wild oat (Avena fatua); Rate 62 g/ha, Postemergence): 3
Wild oats plant response rating (wild oat (Avena fatua); Rate 62 g/ha, Preemergence): 3
Plant response rating, Wild oats (wild oat (Avena fatua); Rate 125 g/ha, Postemergence): 3
Wild oats plant response rating (wild oat (Avena fatua); Rate 125 g/ha, Preemergence): 5
Plant response rating, Wild oats (wild oat (Avena fatua); Rate 250 g/ha, Postemergence): 4
Plant response rating, Wild oats (wild oat (Avena fatua); Rate 250 g/ha, Preemergence): 7
Plant response rating, Wild oats (wild oat (Avena fatua); Rate 500 g/ha, Postemergence): 4
Plant response rating, Wild oats (wild oat (Avena fatua); Rate 500 g/ha, Preemergence): 9
Plant response rating, Morningglory ([10]; Rate 62 g/ha, Postemergence): 7
Morningglory plant response rating ([10]; Rate 62 g/ha, Preemergence): 9
Plant response rating, Morningglory ([10]; Rate 125 g/ha, Postemergence): 7
Morningglory plant response rating ([10]; Rate 125 g/ha, Preemergence): 10
Plant response rating, Morningglory ([10]; Rate 250 g/ha, Postemergence): 9
Plant response rating, Morningglory ([10]; Rate 250 g/ha, Preemergence): 9
Plant response rating, Morningglory ([10]; Rate 500 g/ha, Postemergence): 9
Plant response rating, Morningglory ([10]; Rate 500 g/ha, Preemergence): 10
